Measurements taken from ChEMBL document CHEMBL1155507, “Synthesis, SAR and evaluation of [1,4']-bipiperidinyl-4-yl-imidazolidin-2-one derivatives as novel CCR5 antagonists” (Bioorg Med Chem Lett, 2010).

Experiments:
Caco-2 = experiment: Efflux ratio of permeability from basolateral to apical over apical to basolateral side in human Caco-2 cells after 21 days; format: ADME, cell-based; conditions: caco-2, 504 h
[1] = Permeability from apical to basolateral side of human Caco-2 cells after 21 days; format: ADME, cell-based; conditions: read-out: permeability
[2] = Intrinsic clearance in human liver microsomes per mg of protein; format: ADME, Microsome
[3] = test system: Human immunodeficiency virus 1; experiment: Antiviral activity against HIV1 NL4-3 infected in human JC53-BL cells assessed as luciferase activity after 3 days post infection; format: functional, organism-based; conditions: Human immunodeficiency virus 1, NL4-3, JC53BL, 72 h
[4] = target: C-C chemokine receptor type 5 (Homo sapiens, UniProt P51681); experiment: Binding affinity at CCR5 receptor by radiolabeled RANTES binding assay
[5] = Clearance in rat at 1 mg/kg, iv; format: ADME, organism-based; set-up: dose 1 mg/kg, route intravenous; conditions: in vivo
[6] = Cmax in rat at 1 mg/kg, po; format: ADME, organism-based; set-up: dose 1 mg/kg, route oral; conditions: in vivo
Liver microsomes = experiment: Intrinsic clearance in rat liver microsomes; format: ADME, Microsome
[7] = Half life in rat at 1 mg/kg, iv; format: ADME, organism-based; set-up: dose 1 mg/kg, route intravenous; conditions: in vivo
[8] = (§1) Oral bioavailability in rat at 1 mg/kg; format: ADME, organism-based; conditions: in vivo
[9] = (§2) AUC in rat at 1 mg/kg, po; format: ADME, organism-based, Plasma; set-up: dose 1 mg/kg, route oral; conditions: plasma
[10] = Half life in cynomolgus monkey at 1 mg/kg, iv; format: ADME, organism-based, Macaca fascicularis; set-up: dose 1 mg/kg, route intravenous; conditions: in vivo
[11] = Intrinsic clearance in cynomolgus monkey liver microsomes; format: ADME, Macaca fascicularis, Microsome
[12] = Oral bioavailability in cynomolgus monkey at 1 mg/kg; format: ADME, organism-based, Macaca fascicularis; conditions: in vivo
[13] = Clearance in cynomolgus monkey at 1 mg/kg, iv; format: ADME, organism-based, Macaca fascicularis; set-up: dose 1 mg/kg, route intravenous; conditions: in vivo
[14] = Cmax in cynomolgus monkey at 1 mg/kg, po; format: ADME, organism-based, Macaca fascicularis; set-up: dose 1 mg/kg, route oral; conditions: in vivo
[15] = AUC in cynomolgus monkey at 1 mg/kg, po; format: ADME, organism-based, Macaca fascicularis; set-up: dose 1 mg/kg, route oral; conditions: plasma
Rattus norvegicus [16] = experiment: as §1; format: ADME, organism-based; conditions: in vivo
Rattus norvegicus [17] = experiment: as §2; format: ADME, organism-based, Plasma; set-up: dose 1 mg/kg, route oral; conditions: in vivo
hERG (KCNH2) = hERG (KCNH2) (Homo sapiens, UniProt Q12809); experiment: Inhibition of human ERG by patch clamp technique
Chain of hERG (KCNH2) (Q12809 whole entry): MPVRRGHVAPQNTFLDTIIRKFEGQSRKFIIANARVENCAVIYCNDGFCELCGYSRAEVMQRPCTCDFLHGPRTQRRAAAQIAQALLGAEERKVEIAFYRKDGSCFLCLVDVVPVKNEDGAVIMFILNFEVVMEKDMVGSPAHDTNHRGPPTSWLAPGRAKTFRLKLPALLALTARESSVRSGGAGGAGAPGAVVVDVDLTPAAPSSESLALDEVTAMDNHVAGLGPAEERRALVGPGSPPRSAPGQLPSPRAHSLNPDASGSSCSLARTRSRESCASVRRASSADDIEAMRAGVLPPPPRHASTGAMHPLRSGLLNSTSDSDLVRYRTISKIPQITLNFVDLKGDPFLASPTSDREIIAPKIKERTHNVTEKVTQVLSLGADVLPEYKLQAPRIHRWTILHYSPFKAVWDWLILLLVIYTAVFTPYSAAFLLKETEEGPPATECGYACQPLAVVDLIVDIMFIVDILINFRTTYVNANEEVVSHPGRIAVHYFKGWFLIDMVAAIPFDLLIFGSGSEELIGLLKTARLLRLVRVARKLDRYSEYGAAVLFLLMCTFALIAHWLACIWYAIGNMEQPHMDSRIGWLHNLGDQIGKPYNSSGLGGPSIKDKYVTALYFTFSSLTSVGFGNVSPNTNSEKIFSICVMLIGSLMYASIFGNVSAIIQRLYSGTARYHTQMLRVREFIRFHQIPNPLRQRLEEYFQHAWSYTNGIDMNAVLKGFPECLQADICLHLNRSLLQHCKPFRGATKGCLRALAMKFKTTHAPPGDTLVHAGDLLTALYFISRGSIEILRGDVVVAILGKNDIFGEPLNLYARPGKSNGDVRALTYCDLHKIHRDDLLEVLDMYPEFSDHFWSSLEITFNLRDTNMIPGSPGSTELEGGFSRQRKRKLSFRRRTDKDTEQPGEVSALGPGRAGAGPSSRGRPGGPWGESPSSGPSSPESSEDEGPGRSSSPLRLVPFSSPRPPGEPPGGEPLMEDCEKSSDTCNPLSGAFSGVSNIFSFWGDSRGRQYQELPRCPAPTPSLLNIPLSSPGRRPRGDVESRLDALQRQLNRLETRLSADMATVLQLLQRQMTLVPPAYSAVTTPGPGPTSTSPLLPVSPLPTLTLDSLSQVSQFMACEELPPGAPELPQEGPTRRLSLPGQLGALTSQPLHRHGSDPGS

Chain of C-C chemokine receptor type 5 (P51681 whole entry): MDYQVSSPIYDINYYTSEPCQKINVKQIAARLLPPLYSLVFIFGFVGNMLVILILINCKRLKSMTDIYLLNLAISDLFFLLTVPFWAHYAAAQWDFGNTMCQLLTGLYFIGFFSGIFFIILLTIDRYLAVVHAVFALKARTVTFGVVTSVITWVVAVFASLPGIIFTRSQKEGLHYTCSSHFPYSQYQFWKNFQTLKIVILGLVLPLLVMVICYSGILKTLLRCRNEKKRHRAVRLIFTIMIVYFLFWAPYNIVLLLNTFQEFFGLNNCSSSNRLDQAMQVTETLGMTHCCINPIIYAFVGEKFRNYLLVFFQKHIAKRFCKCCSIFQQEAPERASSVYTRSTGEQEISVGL

Compound	Ratio (Caco-2)	Papp A→B [1]	microsomal CLint [2]	IC50 [3]	IC50 [4]	also measured
Cc1cc(C#N)nc(C)c1C(=O)N1CCC(C)(N2CCC(N3C(=O)N(C)C[C@H]3c3ccccc3)CC2)CC1	25	0.6 ×10⁻⁶ cm/s	44 µL/min/mg	22 nM	24 nM	–
CNC(=O)N1CCC(CN2C[C@@H](c3ccccc3)N(C3CCN(C4(C)CCN(C(=O)c5c(C)cc(C#N)nc5C)CC4)CC3)C2=O)CC1	10	0.7 ×10⁻⁶ cm/s	53 µL/min/mg	25 nM	26 nM	–
Cc1ncnc(C)c1C(=O)N1CCC(C)(N2CCC(N3C(=O)N(C4CCOCC4)C[C@H]3c3ccccc3)CC2)CC1	28	0.6 ×10⁻⁶ cm/s	8 µL/min/mg	> 625 nM	–	–
COC(=O)N1CCC(CN2C[C@@H](c3ccccc3)N(C3CCN(C4(C)CCN(C(=O)c5c(C)ncnc5C)CC4)CC3)C2=O)CC1	56	0.3 ×10⁻⁶ cm/s	155 µL/min/mg	26 nM	–	–
Cc1ncnc(C)c1C(=O)N1CCC(C)(N2CCC(N3C(=O)N(CC4CCN(S(C)(=O)=O)CC4)C[C@H]3c3ccccc3)CC2)CC1	38	0.2 ×10⁻⁶ cm/s	224 µL/min/mg	7 nM	34 nM	–
CNC(=O)N1CCC(CN2C[C@@H](c3ccccc3)N(C3CCN(C4(C)CCN(C(=O)c5c(C)ncnc5C)CC4)CC3)C2=O)CC1	13	0.1 ×10⁻⁶ cm/s	13 µL/min/mg	99 nM	32 nM	–
CO[C@H]1CC[C@H](CN2C[C@@H](c3ccccc3)N(C3CCN(C4(C)CCN(C(=O)c5c(C)ncnc5C)CC4)CC3)C2=O)CC1	13	1.4 ×10⁻⁶ cm/s	69 µL/min/mg	8 nM	62 nM	–
CCO[C@H]1CC[C@H](CN2C[C@@H](c3ccccc3)N(C3CCN(C4(C)CCN(C(=O)c5c(C)ncnc5C)CC4)CC3)C2=O)CC1	4	3 ×10⁻⁶ cm/s	47 µL/min/mg	3 nM	6 nM	clearance [5]: 65 mL/min/kg; Cmax [6]: 21 ng/mL; CL (Liver microsomes): 89 µL/min; half-life [7]: 0.8 h; bioavailability [8]: 10%; AUC [9]: 49 ng·h/mL
Cc1ncnc(C)c1C(=O)N1CCC(C)(N2CCC(N3C(=O)N(C[C@H]4CC[C@H](O)CC4)C[C@H]3c3ccccc3)CC2)CC1	61	0.2 ×10⁻⁶ cm/s	12 µL/min/mg	8 nM	20 nM	–
Cc1cc(C#N)nc(C)c1C(=O)N1CCC(C)(N2CCC(N3C(=O)N(CC4CCOCC4)C[C@H]3c3ccccc3)CC2)CC1	20	1 ×10⁻⁶ cm/s	57 µL/min/mg	2 nM	12 nM	–
Cc1ncnc(C)c1C(=O)N1CCC(C)(N2CCC(N3C(=O)N(CCC4CCOCC4)C[C@H]3c3ccccc3)CC2)CC1	24	0.8 ×10⁻⁶ cm/s	96 µL/min/mg	25 nM	8 nM	–
Cc1ncnc(C)c1C(=O)N1CCC(C)(N2CCC(N3C(=O)N(CC4CCOCC4)C[C@H]3c3ccccc3)CC2)CC1	29	0.5 ×10⁻⁶ cm/s	16 µL/min/mg	32 nM	20 nM	half-life [10]: 1.9 h; microsomal CLint [11]: 65 µL/min/mg; bioavailability [12]: 14%; clearance [13]: 39 mL/min/kg; Cmax [14]: 16 ng/mL; AUC [15]: 55 ng·h/mL
Cc1ncnc(C)c1C(=O)N1CCC(C)(N2CCC(N3C(=O)N(CC4CCOCC4)C[C@@H]3c3ccccc3)CC2)CC1	–	–	–	> 650 nM	> 500 nM	–
Cc1cc(C#N)nc(C)c1C(=O)N1CCC(C)(N2CCC(N3C(=O)N(C4CCOCC4)C[C@H]3c3ccccc3)CC2)CC1	12	1 ×10⁻⁶ cm/s	15 µL/min/mg	7 nM	21 nM	Cmax [6]: 43 ng/mL; CL (Liver microsomes): 55 µL/min; half-life [7]: 5.7 h; F (Rattus norvegicus [16]): 23%; AUC (Rattus norvegicus [17]): 85 ng·h/mL
Cc1cc(C#N)nc(C)c1C(=O)N1CCC(C)(N2CCC(N3C(=O)N(C[C@H]4CC[C@H](O)CC4)C[C@H]3c3ccccc3)CC2)CC1	47	0.4 ×10⁻⁶ cm/s	34 µL/min/mg	3 nM	33 nM	–
Cc1cc(C#N)nc(C)c1C(=O)N1CCC(C)(N2CCC(N3C(=O)N(CC4CCOCC4)C[C@@H]3c3ccccn3)CC2)CC1	77	0.1 ×10⁻⁶ cm/s	18 µL/min/mg	22 nM	12 nM	clearance [5]: 29 mL/min/kg; Cmax [6]: 38 ng/mL; CL (Liver microsomes): 87 µL/min; half-life [7]: 1 h; bioavailability [8]: 19%; AUC [9]: 187 ng·h/mL
CCO[C@H]1CC[C@H](CN2C[C@H](c3ccccn3)N(C3CCN(C4(C)CCN(C(=O)c5c(C)cc(C#N)nc5C)CC4)CC3)C2=O)CC1	30	0.5 ×10⁻⁶ cm/s	40 µL/min/mg	9 nM	25 nM	–
CCCCC1CN(C2CCOCC2)C(=O)N1C1CCN(C2(C)CCN(C(=O)c3c(C)ncnc3C)CC2)CC1 (racemic)	52	0.4 ×10⁻⁶ cm/s	9 µL/min/mg	> 625 nM	84 nM	–
CCCCC1CN(CC2CCOCC2)C(=O)N1C1CCN(C2(C)CCN(C(=O)c3c(C)ncnc3C)CC2)CC1 (racemic)	40	0.4 ×10⁻⁶ cm/s	36 µL/min/mg	335 nM	43 nM	–
Cc1cc(C#N)nc(C)c1C(=O)N1CCC(C)(N2CCC(N3C(=O)N(C4CCOCC4)CC3c3ccccc3)CC2)CC1 (racemic)	–	–	–	–	–	half-life [10]: 1.9 h; microsomal CLint [11]: 33 µL/min/mg; bioavailability [12]: 42%; clearance [13]: 17 mL/min/kg; IC20 (hERG (KCNH2)): 3500 nM; Cmax [14]: 133 ng/mL; AUC [15]: 418 ng·h/mL
Cc1ncnc(C)c1C(=O)N1CCC(C)(N2CCC(N3C(=O)N(CC4CCOCC4)CC3c3ccccc3)CC2)CC1 (racemic)	33	0.4 ×10⁻⁶ cm/s	31 µL/min/mg	47 nM	27 nM	clearance [5]: 44 mL/min/kg; Cmax [6]: 56 ng/mL; CL (Liver microsomes): 14 µL/min; half-life [7]: 1.5 h; bioavailability [8]: 27%; IC20 (hERG (KCNH2)): 22000 nM; AUC [9]: 189 ng·h/mL
CCCCC1CN(C2CCOCC2)C(=O)N1C1CCN(C2(C)CCN(C(=O)c3c(C)cc(C#N)nc3C)CC2)CC1 (racemic)	14	1 ×10⁻⁶ cm/s	20 µL/min/mg	41 nM	65 nM	–
